Measured values published in PubChem BioAssay (NCI).
Values joined by “and” are separate entries in the source; they are usually repeats but may differ in a detail not shown here. Identical values can stand only once.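 Exposure lasted 48 hours, with cells grown in 96-well plates and compounds tested at five concentrations. GI50 is the concentration that inhibits growth by half. TGI is the concentration that stops growth completely.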 Active and inactive are the calls of the source. Cut-off read from the data, not from the text of the source: active = GI50 below about 0.43 µM; inactive = the rest.

What was measured:
Assay in all cases: NCI-60 cell line screen, 48 h
A549 NSCLC = system: A549 NSCLC
HL-60(TB) leukemia = system: HL-60(TB) leukemia
MOLT-4 leukemia = system: MOLT-4 leukemia
OVCAR-8 ovarian = system: OVCAR-8 ovarian
ACHN renal = system: ACHN renal
RXF 393 renal = system: RXF 393 renal
HCT-15 colon = system: HCT-15 colon
SF-268 CNS = system: SF-268 CNS
EKVX NSCLC = system: EKVX NSCLC

Compound	TGI (A549 NSCLC)	TGI (HL-60(TB) leukemia)	TGI (MOLT-4 leukemia)	TGI (OVCAR-8 ovarian)	TGI (ACHN renal)	TGI (RXF 393 renal)	TGI (HCT-15 colon)	TGI (SF-268 CNS)	TGI (EKVX NSCLC)	GI50 (A549 NSCLC)	GI50 (HL-60(TB) leukemia)	GI50 (MOLT-4 leukemia)	GI50 (OVCAR-8 ovarian)	GI50 (ACHN renal)	GI50 (RXF 393 renal)	GI50 (HCT-15 colon)	GI50 (SF-268 CNS)	GI50 (EKVX NSCLC)	outcome (A549 NSCLC)	outcome (SF-268 CNS)
O=[N+]([O-])c1ccc(C=NC2CCCCC2)cc1	> 100 µM	> 100 µM	> 100 µM	> 100 µM	> 100 µM	> 100 µM	> 100 µM	> 100 µM	> 100 µM	–	–	–	–	–	–	–	–	–	–	–
CCCC(=O)OCC1OC(n2cnc3c(=S)nc[nH]c32)C(OC(=O)CCC)C1OC(=O)CCC (stereo not drawn)	> 100 µM	9.96 µM	39.1 µM	> 100 µM	> 100 µM	> 100 µM	> 100 µM	> 100 µM	> 100 µM	38.1 µM	2.6 µM	3.06 µM	4.2 µM	6.15 µM	26 µM	7.22 µM	5.95 µM	35 µM	–	–
CCCC1N2CCCCC2[C@@H]2c3[nH]c4ccccc4c3CCN12 (stereo partly drawn)	> 100 µM	> 100 µM	> 100 µM	> 100 µM	> 100 µM	> 100 µM	> 100 µM	> 100 µM	> 100 µM	–	–	–	–	–	–	–	–	–	–	–
O=C(O)CCNC1CCCCC1	> 100 µM	> 100 µM	> 100 µM	> 100 µM	> 100 µM	> 100 µM	> 100 µM	> 100 µM	> 100 µM	> 100 µM	> 100 µM	> 100 µM	> 100 µM	> 100 µM	> 100 µM	> 100 µM	> 100 µM	> 100 µM	–	–
NC(=O)NS(=O)(=O)c1ccc(N2N=C(C(F)(F)F)CC2c2cc(C(F)(F)F)cc(C(F)(F)F)c2)cc1 (stereo not drawn)	13.5 µM	> 100 µM	55.5 µM	20 µM	14.9 µM	5.77 µM	13.6 µM	12.3 µM	11.3 µM	3.36 µM	3.89 µM	4.73 µM	4.78 µM	3.95 µM	2.86 µM	2.99 µM	2.96 µM	2.82 µM	–	–
CC(=O)O[C@H]1C(=O)[C@@]2(C)C(C(OC(=O)c3ccccc3)[C@]3(O)CC(OC(=O)[C@H](OC(=O)CCC(=O)O)C(NC(=O)c4ccccc4)c4ccccc4)C(C)=C1C3(C)C)C1(OC(C)=O)COC1C[C@@H]2O (stereo partly drawn)	> 100 µM	< 0.0136 µM	1.05 µM	> 100 µM	> 100 µM	2.79 µM	> 100 µM	> 100 µM	> 100 µM	–	–	–	0.0159 µM and 0.038 µM	0.19 µM and 0.821 µM	< 0.0249 µM and 0.0528 µM	–	–	0.121 µM and 0.875 µM	–	–
CS(=O)(=O)c1ccc(-n2nc(C(F)(F)F)cc2OC2CCCC2)cc1	79.4 µM	59.3 µM	> 100 µM	> 100 µM	56 µM	> 100 µM	80.1 µM	> 100 µM	> 100 µM	25.7 µM	24 µM	35.9 µM	43.8 µM	22.4 µM	94.3 µM	30.6 µM	36.1 µM	82.5 µM	–	–
C=C(C[C@](O)(C(=O)/C=C/c1ccc(Cl)cc1)C(=O)OC)c1ccccc1	21.8 µM	7.83 µM	8.35 µM	12.8 µM	5.2 µM	3.31 µM	3.52 µM	8.13 µM	16.9 µM	6.63 µM	2.72 µM	2.59 µM	3.43 µM	2.17 µM	1.66 µM	1.45 µM	2.55 µM	4.16 µM	–	–
C#CCNC(=O)c1cccc2c1cc(C)n2-c1nc2c(c(NCc3ccccc3)n1)CCCC2	0.124 µM	0.191 µM	0.075 µM	0.363 µM	0.11 µM	0.0406 µM	0.0474 µM	0.0771 µM	0.112 µM	0.0381 µM	0.029 µM	0.0229 µM	0.0312 µM	0.0255 µM	0.0122 µM	0.0197 µM	0.0257 µM	0.028 µM	–	–
COc1ccc(C(=O)C#Cc2cnc(OC)nc2OC)cc1	15.7 µM	–	–	3.4 µM	–	–	–	7.41 µM	–	–	22100 µM	17900 µM	32300 µM	17200 µM	26800 µM	17200 µM	–	23700 µM	inactive	inactive
O=C(O)C(CS)Nc1c2ccccc2nc2ccccc12 (stereo not drawn)	> 100 µM	> 100 µM	> 100 µM	> 100 µM	> 100 µM	> 100 µM	> 100 µM	> 100 µM	> 100 µM	–	–	–	–	–	–	–	–	–	–	–
Nc1nc(N(Cc2ccccc2)c2ccccc2)c2cn[nH]c2n1	> 100 µM	6.6 µM	> 100 µM	> 100 µM	> 100 µM	22 µM	> 100 µM	> 100 µM	> 100 µM	5.47 µM	1.57 µM	3.21 µM	6.01 µM	5 µM	2.93 µM	4.24 µM	4.21 µM	3.57 µM	–	–
Nc1nc2c(nnn2C2CC(O)C(CO)O2)c(=O)[nH]1 (stereo not drawn)	> 100 µM	> 38.1 µM	> 53 µM	> 100 µM	> 22.7 µM	33.8 µM	> 100 µM	> 100 µM	> 100 µM	20.3 µM	1.15 µM	2.61 µM	3.71 µM	1 µM	3.05 µM	3.65 µM	7.99 µM	93.5 µM	–	–
COC(=O)Nc1nc2ccc(Oc3ccc(NC(=O)Nc4cc(C(F)(F)F)ccc4F)cc3)cc2s1	> 25 µM	> 25 µM	> 25 µM	> 25 µM	> 25 µM	> 25 µM	> 25 µM	> 25 µM	> 25 µM	15 µM	> 13.5 µM	> 25 µM	8.67 µM	> 25 µM	> 25 µM	24.3 µM	8.5 µM	> 14.7 µM	–	–
COc1cc(Nc2nc3ccccc3nc2-c2cccs2)cc(OC)c1OC	> 100 µM	> 100 µM	> 100 µM	> 10 µM	> 100 µM	> 100 µM	> 100 µM	> 100 µM	> 100 µM	–	–	–	–	–	–	–	–	–	–	–
